Here are results for 22 compounds from patent US20240279233A1, “MACROCYCLIC TAK1 INHIBITORS” (Aqilion AB, priority 2021, published 2024).

The conditions of data set [1]: amide bond, 14-membered ring.
For data set [2], the target named is human recombinant TAK1-TAB1 Kinase (TAK1 (1-303) and TAB1 (437-end)) (Homo sapiens (Human), UniProt O43318). Nature of the data set: TAK1 biochemical ADP-Glo kinase assay. The note with it: MBP substrate. In outline:
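Inhibition of human recombinant TAK1-TAB1 kinase was measured with a Promega ADP-Glo luminescence assay in 384-well plates. Compounds in 5% DMSO were pre-incubated 10 min with 2 μl TAK1-TAB1 (7.5 ng/μl) in buffer of Tris pH 7.5, MgCl2, DTT and BSA. MBP substrate and ATP were then added for 1 hour at room temperature. ADP-Glo reagent and kinase detection substrate followed, luminescence was read on an Envision, and IC50 came from non-linear regression.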

Data set [3] in a line: Solubility assay in phosphate buffer. The note with it: phosphate buffer 100 mM, pH 7.4, room temperature, 20-24 h, LC-UV.
Method: The aqueous solubility of selected example compounds was determined as follows; 6 μL of DMSO stock solution of the selected example was added to 594 μL phosphate buffer (100 mM, pH 7.4). The resulting mixture was equilibrated over night (20-24 h, Alligator Shaker, room temperature). The mixture was then filtered (Millex LH 0.45 μm) and the concentration/solubility was determined by LC-UV quantification.
[4] abbreviates: 10 μM ATP, read-out: TAK1 Mean IC50 (nM) @ 10 μM ATP.
[5] abbreviates: phosphate buffer, pH 7.4, aqueous buffer, kinetic from dmso stock, Solubility (μM).
[6] abbreviates: 1 mM ATP, read-out: TAK1 Mean IC50 (nM) @ 1 mM ATP.

The structures appear in SMILES notation. In brackets after ≈: the same amount, converted by molar mass. Several values for one entry are separate records, joined by “and”; a condition that tells them apart may be missing. Equal entries are not always repeated. Where two headings read alike, the source gives them in different places.

Chain of human recombinant TAK1-TAB1 Kinase (TAK1 (1-303) and TAB1 (437-end)) (O43318 other isoform, or with tags, fused parts or gaps): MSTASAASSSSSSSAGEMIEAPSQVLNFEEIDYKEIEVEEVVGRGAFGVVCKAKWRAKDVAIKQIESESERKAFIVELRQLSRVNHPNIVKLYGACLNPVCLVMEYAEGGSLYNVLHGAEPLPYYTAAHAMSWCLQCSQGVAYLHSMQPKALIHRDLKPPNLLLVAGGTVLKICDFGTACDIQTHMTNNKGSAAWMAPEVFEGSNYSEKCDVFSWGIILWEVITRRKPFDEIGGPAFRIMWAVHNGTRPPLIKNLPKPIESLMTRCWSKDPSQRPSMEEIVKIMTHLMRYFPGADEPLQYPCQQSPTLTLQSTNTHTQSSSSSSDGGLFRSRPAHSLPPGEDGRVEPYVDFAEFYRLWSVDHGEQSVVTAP

For `CC(=O)c1cc(C(=O)N(C)C)c2c(c1)nc1n2[C@H](C)CCCCNC(=O)c2cccc(c2)C(=O)N1`, the ring closure, yield after HPLC in data set [1] (from CC(=O)c1cc(C(=O)N(C)C)c2c(c1)nc(NC(=O)c1cccc(C(=O)O)c1)n2[C@H](C)CCCCN, HATU/DIEA, THF, 0.49 mM, 25.0 °C, 120.0 h) was found to be 34%.

As to `CC1CCCCNC(=O)c2cccc(c2)C(=O)Nc2nc3cccc(-c4ccc[nH]c4=O)c3n21` (stereo not drawn), in data set [1] (from CC(CCCCN)n1c(NC(=O)c2cccc(C(=O)O)c2)nc2cccc(-c3ccc[nH]c3=O)c21, TCFH/NMI, DMF, 3.6 mM, 1.0 h), the ring closure, yield after HPLC is 21%.

`CC1CCCCNC(=O)c2cccc(c2)C(=O)Nc2nc3cccc(C(=O)N(C)C)c3n21` (stereo not drawn) showed a ring closure, yield after HPLC in data set [1] (from CC(CCCCN)n1c(NC(=O)c2cccc(C(=O)O)c2)nc2cccc(C(=O)N(C)C)c21, TCFH/NMI, MeCN/DMF, 1.6 mM, 1.0 h) of 12%.

`CN(C)C(=O)c1cccc2nc3n(c12)C1(CCCCNC(=O)c2cccc(c2)C(=O)N3)CC1` gave a ring closure, yield after HPLC in data set [1] (from CN(C)C(=O)c1cccc2nc(NC(=O)c3cccc(C(=O)O)c3)n(C3(CCCCN)CC3)c12, TCFH/NMI, MeCN/DMF, 0.31 mM, 25.0 °C, 16.0 h) of 18%.

Consider `CN1CCN(Cc2ccc3c(c2)nc2n3CCCCCNC(=O)c3cc(ccc3F)C(=O)N2)CC1`, for which the ring closure, yield after HPLC in data set [1] (from CN1CCN(Cc2ccc3c(c2)nc(NC(=O)c2ccc(F)c(C(=O)O)c2)n3CCCCCN)CC1, TCFH/NMI, DMF/MeCN, 2.2 mM, 25.0 °C, 2.0 h) amounted to 16%.

For `C[C@@H]1CCCCNC(=O)c2cccc(c2)C(=O)Nc2nc3ccc(Cl)c(C(=O)N(C)C)c3n21`, in data set [1] (from C[C@H](CCCCN)n1c(NC(=O)c2cccc(C(=O)O)c2)nc2ccc(Cl)c(C(=O)N(C)C)c21, HATU/DIEA, THF, 0.5 mM, 60.0 °C, 16.0 h), the ring closure, yield after HPLC is 5.3% and 5.7%.

As for `C[C@H]1CCCCNC(=O)c2cccc(c2)C(=O)Nc2nc3ccc(Cl)c(C(=O)N(C)C)c3n21`, the ring closure, yield after HPLC in data set [1] (from C[C@@H](CCCCN)n1c(NC(=O)c2cccc(C(=O)O)c2)nc2ccc(Cl)c(C(=O)N(C)C)c21, HATU/DIEA, THF, 0.5 mM, 60.0 °C, 16.0 h) was 7.1% and 6.3%.

Consider `Cc1noc(-c2cccc3nc4n(c23)[C@@H](C)CCCCNC(=O)c2cccc(c2)C(=O)N4)n1`, for which the ring closure, yield after HPLC in data set [1] (from Cc1noc(-c2cccc3nc(NC(=O)c4cccc(C(=O)O)c4)n([C@@H](C)CCCCN)c23)n1, TCFH/NMI, MeCN, 0.23 mM, 25.0 °C, 16.0 h) turned out to be 92%.

In data set [1] (from Cc1ccc2c(c1)nc(NC(=O)c1cccc(C(=O)O)c1)n2CCCCCN, HATU/TEA, MeCN, 50.0 °C, 16.0 h, 2 steps), `Cc1ccc2c(c1)nc1n2CCCCCNC(=O)c2cccc(c2)C(=O)N1` [Example 4, 1^5-methyl-1^1H-2,6-diaza-1(2,1)-benzo[d]imidazola-4(1,3)-benzenacycloundecaphane-3,5-dione] registered a ring closure, yield after HPLC of 39%. In addition, the half-inhibitory concentration (IC50) in data set [2] (setting [4]) is 7 nM. The compound also had a solubility in data set [3] (setting [5]) of 0.2 µM (≈ 0.0725 µg/mL).

Consider `O=C1NCCOCCn2c(nc3ccccc32)NC(=O)c2cccc1c2` [Example 5, 1^1H-9-oxa-2,6-diaza-1(2,1)-benzo[d]imidazola-4(1,3)-benzenacycloundecaphane-3,5-dione], for which, in data set [1] (from NCCOCCn1c(NC(=O)c2cccc(C(=O)O)c2)nc2ccccc21, HATU/TEA, MeCN, 14.0 mM, 50.0 °C, 16.0 h, 2 steps), the ring closure, yield after HPLC stood at 16%. Further, the IC50 in data set [2] (setting [4]) was 11 nM; in data set [2] (setting [6]) it was 247 nM. In data set [3], the “solubility” value was 15.2 µM (≈ 5.33 µg/mL).

`CC1CCCCNC(=O)c2cccc(c2)C(=O)Nc2nc3ccccc3n21` (stereo not drawn) [Example 6, 11-methyl-1^1H-2,6-diaza-1(2,1)-benzo[d]imidazola-4(1,3)-benzenacycloundecaphane-3,5-dione]: the ring closure, yield after HPLC in data set [1] (from CC(CCCCN)n1c(NC(=O)c2cccc(C(=O)O)c2)nc2ccccc21, HATU/TEA, MeCN, 4.3 mM, 50.0 °C, 16.0 h, 2 steps) turned out to be 39%. For the same compound, in data set [2] (setting [4]), the 50% inhibitory concentration (IC50) turned out to be 5 nM. Further, the solubility in data set [3] (setting [5]) came to 2.5 µM (≈ 0.906 µg/mL).

Turning to `CN1CCN(Cc2cc(C(=O)N(C)C)c3c(c2)nc2n3CCCCCNC(=O)c3cccc(c3)C(=O)N2)CC1` [Example 27, (E)-N,N-dimethyl-1^5-((4-methylpiperazin-1-yl)methyl)-3,5-dioxo-1^2,1^3-dihydro-1^1H-2,6-diaza-1(2,1)-benzo[d]imidazola-4(1,3)-benzenacycloundecaphane-1^7-carboxamide], the ring closure, yield after HPLC in data set [1] (from CN1CCN(Cc2cc(C(=O)N(C)C)c3c(c2)nc(NC(=O)c2cccc(C(=O)O)c2)n3CCCCCN)CC1, HATU/DIEA, THF, then DMF, 0.46 mM, 40.0 °C, 18.0 h) came out at 10%. Besides, the IC50 in data set [2] (setting [4]) is 8 nM. The same compound showed a solubility in data set [3] (setting [5]) of 61.3 µM (≈ 32.6 µg/mL).

As to `COc1ncccc1-c1cccc2nc3n(c12)CCCCCNC(=O)c1cccc(c1)C(=O)N3` [Example 28, (E)-1^7-(2-methoxypyridin-3-yl)-1^2,1^3-dihydro-1^1H-2,6-diaza-1(2,1)-benzo[d]imidazola-4(1,3)-benzenacycloundecaphane-3,5-dione], the ring closure, yield after HPLC in data set [1] (from COc1ncccc1-c1cccc2nc(NC(=O)c3cccc(C(=O)O)c3)n(CCCCCN)c12, HATU/DIEA, DMF, 0.49 mM, 16.0 h) was determined as 19%. Further, the IC50 in data set [2] (setting [4]) turned out to be 366 nM. Besides, the solubility in data set [3] (setting [5]) worked out at 1.1 µM (≈ 0.501 µg/mL).

In data set [1] (from CC(CCCCN)n1c(NC(=O)c2cccc(C(=O)O)c2)nc2cccc(-c3ccc[n+]([O-])c3)c21, HATU/DIEA, THF, 0.46 mM, 32.0 h, 2 steps), `CC1CCCCNC(=O)c2cccc(c2)C(=O)Nc2nc3cccc(-c4ccc[n+]([O-])c4)c3n21` (stereo not drawn) [Example 33, (E)-3-(11-methyl-3,5-dioxo-1^2,1^3-dihydro-1^1H-2,6-diaza-1(2,1)-benzo[d]imidazola-4(1,3)-benzenacycloundecaphane-1^7-yl)pyridine 1-oxide] came in with a ring closure, yield after HPLC of 7%. Moreover, in data set [2] (setting [4]), the half-maximal inhibitory concentration (IC50) worked out at 8 nM.

For `C[C@H]1CCCCNC(=O)c2cccc(c2)C(=O)Nc2nc3cccc(-c4ncn(C)n4)c3n21` [Example 84, (S)-11-methyl-1^7-(1-methyl-1H-1,2,4-triazol-3-yl)-1^1H-2,6-diaza-1(2,1)-benzo[d]imidazola-4(1,3)-benzenacycloundecaphane-3,5-dione], the half-maximal inhibitory concentration (IC50) in data set [2] (setting [4]) came out at 5 nM. Besides, the solubility in data set [3] (setting [5]) was found to be 15 µM (≈ 6.65 µg/mL).

Turning to `C[C@H]1CCCCNC(=O)c2cccc(c2)C(=O)Nc2nc3cccc(-c4ncnn4C)c3n21` [Example 86, (S,E)-11-methyl-1^7-(1-methyl-1H-1,2,4-triazol-5-yl)-1^1H-2,6-diaza-1(2,1)-benzo[d]imidazola-4(1,3)-benzenacycloundecaphane-3,5-dione], the IC50 in data set [2] (setting [4]) was 4 nM; in data set [2] (setting [6]), 9 nM. In data set [3] (setting [5]), the solubility stood at 33 µM (≈ 14.6 µg/mL).

For the compound `C[C@H]1CCCCNC(=O)c2cccc(c2)C(=O)/N=C2\Nc3cccc(-c4cn(C)nn4)c3N21` [Example 87, (S,E)-11-methyl-1^7-(1-methyl-1H-1,2,3-triazol-4-yl)-1^2,1^3-dihydro-1^1H-2,6-diaza-1(2,1)-benzo[d]imidazola-4(1,3)-benzenacycloundecaphane-3,5-dione], the values for the IC50 in data set [2] (setting [4]) and in data set [2] (setting [6]) were 5 nM and 9 nM, respectively. In data set [3] (setting [5]), this compound gave a solubility of 4.7 µM (≈ 2.08 µg/mL).

In the case of `CN1CCN(C(=O)c2ccc3nc4n(c3c2)CCCCCNC(=O)c2cccc(c2)C(=O)N4)CC1` [Example 97, (E)-1^6-(4-methylpiperazine-1-carbonyl)-1^2,1^3-dihydro-1^1H-2,6-diaza-1(2,1)-benzo[d]imidazola-4(1,3)-benzenacycloundecaphane-3,5-dione], the 50% inhibitory concentration (IC50) in data set [2] (setting [4]) came to 4 nM. This compound also returned a solubility in data set [3] (setting [5]) of 5 µM (≈ 2.37 µg/mL).

As for `O=C1/N=C2\Nc3ccc(C(=O)N4CCN(C5COC5)CC4)cc3N2CCCCCNC(=O)c2cccc1c2` [Example 98, (E)-1^6-(4-(oxetan-3-yl)piperazine-1-carbonyl)-1^2,1^3-dihydro-1^1H-2,6-diaza-1(2,1)-benzo[d]imidazola-4(1,3)-benzenacycloundecaphane-3,5-dione], the concentration for half-maximal inhibition (IC50) in data set [2] (setting [4]) came out at 5 nM. Also, in data set [3] (setting [5]), the solubility is 4.7 µM (≈ 2.43 µg/mL).

With `O=C1/N=C2\Nc3ccc(C(=O)N4CCNCC4)cc3N2CCCCCNC(=O)c2cccc1c2` [Example 100, (E)-1^6-(piperazine-1-carbonyl)-1^2,1^3-dihydro-1^1H-2,6-diaza-1(2,1)-benzo[d]imidazola-4(1,3)-benzenacycloundecaphane-3,5-dione], the IC50 in data set [2] (setting [4]) is 2 nM. The same compound had a solubility in data set [3] (setting [5]) of 83.1 µM (≈ 38.3 µg/mL).

Regarding `CN1CCN(Cc2ccc3c(c2)N2CCCCCNC(=O)c4cccc(c4)C(=O)/N=C/2N3)CC1` [Example 101, (E)-1^6-((4-methylpiperazin-1-yl)methyl)-1^2,1^3-dihydro-1^1H-2,6-diaza-1(2,1)-benzo[d]imidazola-4(1,3)-benzenacycloundecaphane-3,5-dione], the IC50 in data set [2] (setting [4]) stood at 8 nM. The compound also gave a solubility in data set [3] (setting [5]) of 20.8 µM (≈ 9.58 µg/mL).

Regarding `C[C@H]1CCCCNC(=O)c2cccc(c2)C(=O)/N=C2\Nc3cc(C(C)(C)O)cc(C(=O)N(C)C)c3N21` [Example 123, (S,E)-1^5-(2-hydroxypropan-2-yl)-N,N,11-trimethyl-3,5-dioxo-1^2,1^3-dihydro-1^1H-2,6-diaza-1(2,1)-benzo[d]imidazola-4(1,3)-benzenacycloundecaphane-1^7-carboxamide], the IC50 in data set [2] (setting [4]) turned out to be 4 nM; in data set [2] (setting [6]), 11 nM. Moreover, the solubility in data set [3] (setting [5]) was found to be 90 µM (≈ 44.2 µg/mL).
